From ChEMBL document CHEMBL1201862, “PubChem BioAssay data set” (2004)
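Each compound was tested at five concentrations against cells in 96-well plates for 48 hours. GI50: concentration for 50% inhibition of growth.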 Active and inactive are the calls of the source. Cut-off read from the data, not from the text of the source: active = GI50 up to about 1.1 µM and inactive = higher.

How the values were obtained:
Assay in all cases: NCI anticancer screen, dose series, 48 h
SK-OV-3 = tested on: SK-OV-3
RPMI-8226 = tested on: RPMI-8226
HCC 2998 = tested on: HCC 2998
TK-10 = tested on: TK-10
UACC-62 = tested on: UACC-62
MDA-N = tested on: MDA-N
DU-145 = tested on: DU-145
PC-3 = tested on: PC-3
SW-620 = tested on: SW-620
IGROV-1 = tested on: IGROV-1
NCI-H23 = tested on: NCI-H23
HOP-62 = tested on: HOP-62
LOX IMVI = tested on: LOX IMVI
HL-60 = tested on: HL-60
T47D = tested on: T47D
UACC-257 = tested on: UACC-257
CAKI-1 = tested on: CAKI-1
786-0 = tested on: 786-0
NCI-H522 = tested on: NCI-H522
MDA-MB-435 = tested on: MDA-MB-435

| Compound | GI50 (SK-OV-3) | GI50 (RPMI-8226) | GI50 (HCC 2998) | GI50 (TK-10) | GI50 (UACC-62) | GI50 (MDA-N) | GI50 (DU-145) | GI50 (PC-3) | GI50 (SW-620) | GI50 (IGROV-1) | GI50 (NCI-H23) | GI50 (HOP-62) | GI50 (LOX IMVI) | GI50 (HL-60) | GI50 (T47D) | GI50 (UACC-257) | GI50 (CAKI-1) | GI50 (786-0) | GI50 (NCI-H522) | GI50 (MDA-MB-435) |
| --- | --- | --- | --- | --- | --- | --- | --- | --- | --- | --- | --- | --- | --- | --- | --- | --- | --- | --- | --- | --- |
| CC(C)(C)NC(NC(C)(C)C)=C(C(Cl)=C(Cl)Cl)[N+](=O)[O-] | > 100 µM (inactive) | > 100 µM (inactive) | > 100 µM (inactive) | > 100 µM (inactive) | > 100 µM (inactive) | > 100 µM (inactive) | > 100 µM (inactive) | > 100 µM (inactive) | > 100 µM (inactive) | > 100 µM (inactive) | > 100 µM (inactive) | > 100 µM (inactive) | > 100 µM (inactive) | > 100 µM (inactive) | > 100 µM (inactive) | 67.6 µM (inactive) | > 100 µM (inactive) | > 100 µM (inactive) | – | – |
| O=C(O)c1cc(O)nc(SCc2ccccc2)n1 | – | – | – | > 100 µM (inactive) | > 100 µM (inactive) | > 100 µM (inactive) | > 100 µM (inactive) | > 100 µM (inactive) | > 100 µM (inactive) | > 100 µM (inactive) | > 100 µM (inactive) | > 100 µM (inactive) | > 100 µM (inactive) | > 100 µM (inactive) | > 100 µM (inactive) | > 100 µM (inactive) | > 100 µM (inactive) | > 100 µM (inactive) | > 100 µM (inactive) | > 100 µM (inactive) |
| CC(=O)n1cc(OP(=O)(Oc2ccccc2)Oc2ccccc2)c2ccccc21 | – | 19.2 µM (inactive) | – | 50.6 µM (inactive) | 16.9 µM (inactive) | 27.6 µM (inactive) | 72.3 µM (inactive) | 10.3 µM (inactive) | 44.2 µM (inactive) | 8.53 µM (inactive) | 33.3 µM (inactive) | – | 23.2 µM (inactive) | 16 µM (inactive) | 32.7 µM (inactive) | 25.7 µM (inactive) | 13.1 µM (inactive) | 32.1 µM (inactive) | – | 17.9 µM (inactive) |
| CCCCOC(=O)C(=O)C(CCC(=O)c1ccc(C)cc1)C(=O)C=C(C)C (stereo unspecified) | > 100 µM (inactive) | > 100 µM (inactive) | > 100 µM (inactive) | > 100 µM (inactive) | > 100 µM (inactive) | > 100 µM (inactive) | – | > 100 µM (inactive) | > 100 µM (inactive) | > 100 µM (inactive) | > 100 µM (inactive) | > 100 µM (inactive) | > 100 µM (inactive) | > 100 µM (inactive) | > 100 µM (inactive) | > 100 µM (inactive) | > 100 µM (inactive) | > 100 µM (inactive) | > 100 µM (inactive) | > 100 µM (inactive) |
| CCCCCCCCCCCCCCCC(=O)OCC(COP(=O)(O)OCCNC(=O)CCSSc1ccccn1)OC(=O)CCCCCCCCCCCCCCC (stereo unspecified) | > 100 µM (inactive) | > 100 µM (inactive) | – | – | > 100 µM (inactive) | > 100 µM (inactive) | > 100 µM (inactive) | > 100 µM (inactive) | > 100 µM (inactive) | > 100 µM (inactive) | > 100 µM (inactive) | > 100 µM (inactive) | – | > 100 µM (inactive) | > 100 µM (inactive) | > 100 µM (inactive) | > 100 µM (inactive) | > 100 µM (inactive) | > 100 µM (inactive) | > 100 µM (inactive) |
| COc1ccc(OC)c(CC(=O)c2ccc(O)c(C(=O)NCCc3ccc(F)cc3)c2)c1 | 2.69 µM (inactive) | 4.1 µM (inactive) | 4.63 µM (inactive) | 7.23 µM (inactive) | – | 0.498 µM (active) | 1.73 µM (inactive) | – | 4.18 µM (inactive) | 3.27 µM (inactive) | 3.12 µM (inactive) | 1.54 µM (inactive) | 6.95 µM (inactive) | 2.16 µM (inactive) | 2.8 µM (inactive) | 10.5 µM (inactive) | 3.26 µM (inactive) | 4.18 µM (inactive) | 2.79 µM (inactive) | 0.615 µM (active) |
| c1cncc(CNCc2cccnc2)c1 | > 100 µM (inactive) | > 100 µM (inactive) | – | > 100 µM (inactive) | > 100 µM (inactive) | > 100 µM (inactive) | > 100 µM (inactive) | > 100 µM (inactive) | > 100 µM (inactive) | > 100 µM (inactive) | > 100 µM (inactive) | > 100 µM (inactive) | > 100 µM (inactive) | 3.6 µM (inactive) | > 100 µM (inactive) | > 100 µM (inactive) | > 100 µM (inactive) | > 100 µM (inactive) | > 100 µM (inactive) | > 100 µM (inactive) |
| COc1ccc2c(c1)N=C1CSC(c3ccccc3Cl)N1C2 (stereo unspecified) | 15.1 µM (inactive) | 12.2 µM (inactive) | 5.07 µM (inactive) | 17.1 µM (inactive) | 4.08 µM (inactive) | 6.17 µM (inactive) | – | 11.5 µM (inactive) | 14.8 µM (inactive) | – | 17.9 µM (inactive) | 14.5 µM (inactive) | 6.55 µM (inactive) | 0.411 µM (active) | 19.5 µM (inactive) | 16.3 µM (inactive) | 3.31 µM (inactive) | 11.5 µM (inactive) | 15.1 µM (inactive) | 11.5 µM (inactive) |
| O=C1c2ccccc2C(O)(O)C1(O)C1(O)C(=O)c2ccccc2C1(O)O (stereo unspecified) | > 100 µM (inactive) | 51.2 µM (inactive) | – | 23 µM (inactive) | 86.9 µM (inactive) | 21.7 µM (inactive) | 57.3 µM (inactive) | > 100 µM (inactive) | 35.3 µM (inactive) | 41.7 µM (inactive) | 20.8 µM (inactive) | 23.4 µM (inactive) | 23 µM (inactive) | 18.9 µM (inactive) | 23.1 µM (inactive) | – | 29.6 µM (inactive) | 38.9 µM (inactive) | 19.4 µM (inactive) | 16.6 µM (inactive) |
| CCCCCCCCCCCCCCCC(=O)ON1C(=S)NC(C)(c2ccccc2)C1=S (stereo unspecified) | > 100 µM (inactive) | > 100 µM (inactive) | 38.5 µM (inactive) | > 100 µM (inactive) | > 100 µM (inactive) | > 100 µM (inactive) | > 100 µM (inactive) | 62.2 µM (inactive) | – | 79.3 µM (inactive) | > 100 µM (inactive) | > 100 µM (inactive) | 45.2 µM (inactive) | 94.6 µM (inactive) | > 100 µM (inactive) | > 100 µM (inactive) | > 100 µM (inactive) | 60 µM (inactive) | – | – |
| OCc1ccc2c(c1)CC1(Cc3ccccc3C1)C2 | 25.6 µM (inactive) | 15.8 µM (inactive) | 27.7 µM (inactive) | 21.2 µM (inactive) | 20.1 µM (inactive) | 4.86 µM (inactive) | 33.8 µM (inactive) | 10.8 µM (inactive) | 18.4 µM (inactive) | > 10 µM (inactive) | 33 µM (inactive) | 25.6 µM (inactive) | 15.4 µM (inactive) | 10.7 µM (inactive) | 26.6 µM (inactive) | 15.1 µM (inactive) | 15.9 µM (inactive) | 15.1 µM (inactive) | 22.5 µM (inactive) | – |
